From PubChem BioAssay (NCI) come the findings set out here.

Among the test systems are DMS 114 small cell lung; DMS 273 small cell lung; HOP-18 NSCLC; KM20L2 colon; SNB-78 CNS; XF 498 CNS; RXF-631 renal.
Common to all, as to assay: inhibition of tumour cell growth, NCI panel, 48 h

Each structure is given as a SMILES string.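 Test compounds were applied to cells in 96-well plates for 48 hours at 5 doses. At the TGI there is no net growth.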

With `O=C(CCN(CCO)CCO)Nc1ccc2c(c1)C(=O)c1ccc(NC(=O)CCN(CCO)CCO)cc1C2=O`, the TGI with DMS 114 small cell lung was 19.6 µM; in the assay on DMS 273 small cell lung, 22.1 µM; in the assay with HOP-18 NSCLC, greater than 100 µM; in the assay with KM20L2 colon, greater than 100 µM; in the assay with SNB-78 CNS, 54.8 µM; with XF 498 CNS, 25 µM.
In the case of `CCOc1ccc(NCC(=O)N2CC(=O)Nc3ccccc32)cc1`, the TGI in the assay with DMS 273 small cell lung, with HOP-18 NSCLC, in the assay on KM20L2 colon, in the assay with SNB-78 CNS and in the assay with XF 498 CNS was greater than 100 µM throughout.
In the case of `CCCCCCCCCCCCCCCC(=O)NC1CCc2cc(O)c(O)c(O)c2-c2ccc(SC)c(=O)cc21` (configuration not stated), the TGI worked out at 6.37 µM in the assay with DMS 114 small cell lung; 16.4 µM with DMS 273 small cell lung; 32.7 µM in the assay on KM20L2 colon; 28.1 µM in the assay with RXF-631 renal; 28.2 µM in the assay with SNB-78 CNS; 29.6 µM in the assay with XF 498 CNS.
Regarding `CC(=O)Nc1ccc(-c2nnc(SCC(=O)Nc3ccccc3Cl)o2)cc1`, the TGI with DMS 114 small cell lung, with DMS 273 small cell lung, in the assay on HOP-18 NSCLC, in the assay on KM20L2 colon and with SNB-78 CNS was greater than 100 µM each time.
Consider `CC(SC1=CC(=O)c2c(Cl)ccc(O)c2C1=O)C(=O)O` (configuration not stated), for which the TGI in the assay with DMS 114 small cell lung is 38.4 µM; in the assay with DMS 273 small cell lung, 35.6 µM; with HOP-18 NSCLC, 75.8 µM; in the assay on KM20L2 colon, greater than 100 µM; in the assay with SNB-78 CNS, 26.3 µM; in the assay with XF 498 CNS, 34.2 µM.
Regarding `CCc1cc(Cc2cc(CC)c(NC(=O)C3=CC(=O)CC(c4ccc(OC)cc4)O3)c(CC)c2Cl)c(Cl)c(CC)c1NC(=O)C1=CC(=O)CC(c2ccc(OC)cc2)O1` (configuration not stated), the TGI with DMS 114 small cell lung was 33.5 µM; with DMS 273 small cell lung, 37.6 µM; in the assay on HOP-18 NSCLC it was 53.5 µM; with KM20L2 colon, 63.4 µM; in the assay on RXF-631 renal it was greater than 100 µM; with SNB-78 CNS, 85.1 µM.
In the case of `COc1ccc2c(OC)c3ccoc3nc2c1O`, the TGI with DMS 114 small cell lung, with HOP-18 NSCLC, with KM20L2 colon, with SNB-78 CNS and in the assay on XF 498 CNS was greater than 100 µM each time.
For the compound `c1ccc(C2=NN(c3ccccc3)C3(S2)SC(c2ccccc2)(c2ccccc2)c2ccccc23)cc1` (configuration not stated), the TGI in the assay with DMS 114 small cell lung, in the assay with DMS 273 small cell lung, in the assay with KM20L2 colon, with SNB-78 CNS and in the assay on XF 498 CNS was greater than 100 µM throughout.
For `CC(=O)OC1[C@H]2c3cc4c(cc3CN3CCC(C[C@@H]1OC(C)=O)C23)OCO4` (some centres not stated), the TGI with DMS 114 small cell lung, in the assay on DMS 273 small cell lung, in the assay on KM20L2 colon and with SNB-78 CNS was greater than 75 µM throughout.
Turning to `COc1ccc2c(c1)c(Cc1c(C)n(C)c3ccc(OC)cc13)c(C)n2C`, the TGI in the assay on DMS 114 small cell lung, in the assay on DMS 273 small cell lung, in the assay with HOP-18 NSCLC, in the assay on KM20L2 colon, in the assay on SNB-78 CNS and in the assay with XF 498 CNS was greater than 100 µM throughout.
Take `O=S(=O)(CC1=NC2C=CC=CC2N=C1)NCc1ccccc1` (configuration not stated): the TGI in the assay on DMS 273 small cell lung, in the assay on HOP-18 NSCLC, in the assay with KM20L2 colon and in the assay on XF 498 CNS was greater than 100 µM in each case.
Consider `Cc1ccc2sc3cc(=O)cc(C)c-3nc2c1`, for which the TGI with DMS 114 small cell lung, in the assay on DMS 273 small cell lung, in the assay on HOP-18 NSCLC, with KM20L2 colon, in the assay on RXF-631 renal and in the assay with SNB-78 CNS was greater than 100 µM throughout.
For the compound `CCCCOC(=O)/C(CC(=O)C=C(C)C)=N\NS(=O)(=O)c1ccc(C)cc1`, the TGI with DMS 114 small cell lung, in the assay with HOP-18 NSCLC, in the assay with KM20L2 colon, with SNB-78 CNS and in the assay with XF 498 CNS was greater than 100 µM each time.
On to `Cc1ccc(S(=O)(=O)N/N=C2\C(=O)C3CC2C(Cl)C3Cl)cc1` (configuration not stated), for which the TGI in the assay with DMS 114 small cell lung, in the assay on DMS 273 small cell lung, in the assay on HOP-18 NSCLC, in the assay with KM20L2 colon and in the assay on RXF-631 renal was greater than 100 µM in each case.
On to `C1=CCN(c2ccccc2)CC1`, for which the TGI in the assay on DMS 114 small cell lung, in the assay on DMS 273 small cell lung, in the assay on HOP-18 NSCLC, with KM20L2 colon, with RXF-631 renal and in the assay on SNB-78 CNS was greater than 100 µM each time. Moreover, the TGI in the assay with XF 498 CNS came out at 40.6 µM.
Take `O=C(Nc1ccc(C(F)(F)F)cc1[N+](=O)[O-])C(=O)C(C(=O)c1ccc2ccccc2c1)C1OC(=O)c2ccccc21` (configuration not stated): the TGI was found to be 40.5 µM in the assay with DMS 114 small cell lung, 38.7 µM in the assay on KM20L2 colon and 35.4 µM in the assay with SNB-78 CNS.
As for `COC(=O)c1c/c(=N\NC(=O)CC(=O)Nc2ccccc2Cl)c2ccccc2o1`, the TGI with DMS 114 small cell lung, with DMS 273 small cell lung, with KM20L2 colon, in the assay with RXF-631 renal, with SNB-78 CNS and in the assay on XF 498 CNS was greater than 100 µM each time.
For the compound `O=C1/C(=C/c2cccc([N+](=O)[O-])c2)COc2ccccc21`, the TGI is 8.14 µM with DMS 114 small cell lung; 24.8 µM with HOP-18 NSCLC; greater than 100 µM in the assay on KM20L2 colon; 31.7 µM with RXF-631 renal; greater than 100 µM in the assay on SNB-78 CNS.
For `O=C(O)Cc1cc(=O)oc2cc(O)c(Cl)cc12`, the TGI in the assay on DMS 114 small cell lung, with DMS 273 small cell lung, with HOP-18 NSCLC, in the assay on KM20L2 colon and with XF 498 CNS was greater than 100 µM throughout.
In the case of `N#CCCc1nc2ccc(Br)cc2c(=O)n1-c1ccc(O)c([N+](=O)[O-])c1`, the TGI in the assay on KM20L2 colon is greater than 100 µM; in the assay on RXF-631 renal, 33.9 µM; in the assay on SNB-78 CNS, 76.7 µM; in the assay with XF 498 CNS it was 34.9 µM.
Take `Cc1nc2ccccc2nc1NS(=O)(=O)c1ccc(N)cc1`: the TGI in the assay with DMS 273 small cell lung, in the assay on HOP-18 NSCLC, in the assay on KM20L2 colon, in the assay with RXF-631 renal, with SNB-78 CNS and in the assay on XF 498 CNS was greater than 100 µM throughout.
Take `CC[C@@]1(O)C(=O)OCc2c1c(Cl)c1n(c2=O)Cc2cc3ccccc3nc2-1`: the TGI in the assay on DMS 114 small cell lung is 15.9 µM; in the assay on DMS 273 small cell lung, 8.12 µM; in the assay with HOP-18 NSCLC, greater than 28.5 µM; in the assay with KM20L2 colon, greater than 100 µM; in the assay on RXF-631 renal, 18.5 µM; in the assay with SNB-78 CNS it was 84 µM. This compound also yielded a TGI in the assay with XF 498 CNS of 15.8 µM.
